Structures can show the parent of a compound that is named as a salt. Where two headings read alike, the source gives them in different places.

6 compounds from patent publication US5688950A, “Tricyclic aminoalkylcarboxamides; novel dopamine D3 receptor subtype specific ligands” (Neurogen Corporation, priority 1996, dated 1997) can be followed below.

In one assay the target is T1, D2 receptor (Chlorocebus aethiops, UniProt P52702).
T1 construct: expressed in transfected cells; host or cells: COS cells
T1 sequence (P52702 whole entry): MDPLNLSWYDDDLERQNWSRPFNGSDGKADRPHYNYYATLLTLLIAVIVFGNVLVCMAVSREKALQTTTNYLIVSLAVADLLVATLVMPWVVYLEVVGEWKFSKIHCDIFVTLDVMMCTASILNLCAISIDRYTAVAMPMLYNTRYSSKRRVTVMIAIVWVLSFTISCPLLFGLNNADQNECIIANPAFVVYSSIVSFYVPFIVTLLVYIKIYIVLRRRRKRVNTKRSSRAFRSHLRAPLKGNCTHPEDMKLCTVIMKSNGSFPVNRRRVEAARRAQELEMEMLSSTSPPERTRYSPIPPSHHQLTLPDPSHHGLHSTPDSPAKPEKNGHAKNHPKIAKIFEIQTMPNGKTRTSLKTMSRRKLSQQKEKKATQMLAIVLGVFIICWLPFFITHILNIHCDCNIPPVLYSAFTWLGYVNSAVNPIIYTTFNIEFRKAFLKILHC
Nature of the assay: D2 receptor binding activity (pellets of COS cells, 3H-YM 09151-2). More on the design: species or system African Green monkey. The following applies: 0.5 nM 3H-YM 09151-2, pH 7.4; nonspecific with 1 mM spiperone. The method, then: (§1) Pellets of COS cells containing recombinantly produced D2 or D3 receptors from African Green monkey were used for the assays. The sample is homogenized in 100 volumes (w/vol) of 0.05M Tris HCl buffer at 4° C. and pH 7.4. The sample is then centrifuged at 30,000×g and resuspended and rehomogenized. The sample is then centrifuged as described and the final tissue sample is frozen until use. The tissue is resuspended 1:20 (wt/vol) in 0.05M Tris HCl buffer containing 100 mM NaCl.
(§2) Incubations are carried out at 48° C. and contain 0.4 ml of tissue sample, 0.5 nM ^3 H-YM 09151-2 and the compound of interest in a total incubation of 1.0 ml. Nonspecific binding is defined as that binding found in the presence of 1 mM spiperone; without further additions, nonspecific binding is less than 20% of total binding. The binding characteristics of representative compounds of the invention for D2 and D3 receptor subtypes are shown in Table 1 for rat striatal homogenates.

In another assay the target is T2, D3 receptor (Chlorocebus aethiops, UniProt P52703).
T2 construct: expressed in transfected cells; host or cells: COS cells
T2 sequence (P52703 whole entry): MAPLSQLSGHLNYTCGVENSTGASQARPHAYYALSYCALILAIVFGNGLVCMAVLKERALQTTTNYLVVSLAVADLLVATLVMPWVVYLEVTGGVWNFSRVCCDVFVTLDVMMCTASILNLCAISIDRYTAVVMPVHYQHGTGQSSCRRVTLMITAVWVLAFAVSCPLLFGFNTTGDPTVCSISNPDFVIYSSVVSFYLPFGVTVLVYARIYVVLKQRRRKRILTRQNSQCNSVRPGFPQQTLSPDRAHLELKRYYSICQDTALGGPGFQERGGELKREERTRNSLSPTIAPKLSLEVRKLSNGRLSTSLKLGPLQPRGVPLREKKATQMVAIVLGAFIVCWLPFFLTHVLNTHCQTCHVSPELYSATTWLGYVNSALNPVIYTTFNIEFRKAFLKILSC
Nature of the assay: D3 receptor binding activity (pellets of COS cells, 3H-YM 09151-2). More on the design: species or system African Green monkey. The method, then: as §1, §2

[1] abbreviates: 0.5 nM 3H-YM 09151-2, pH 7.4, nonspecific with 1 mM spiperone, read-out: D3 Ki.

Broadly, the Ki is the dissociation constant of the complex between target and ligand, obtained from inhibition or displacement. Regarding `O=C(NCCCCN1CCC2=C(CCc3ccccc32)C1)c1ccc(-c2ccccc2)cc1` [Compound 13, N-{4-(1,2,3,4,5,6-hexahydrobenz[f]isoquinolin-2-yl)butyl}-biphenyl-4-carboxamide hydrochloride], the Ki at D2 receptor was found to be 0.362 µM; on D3 receptor, 0.01 µM.
With `O=C(NCCCCN1CCc2c(ccc3ccccc23)C1)c1cnc2ccccc2n1` [Compound 8, N-{4-(1,2,3,4-tetrahydrobenz[f]isoquinolin-2-yl)butyl}-quinoxaline-2-carboxamide hydrochloride], the figures for the Ki at D2 receptor and at D3 receptor (setting [1]) were 0.25 µM and 0.012 µM, respectively.
Take “N-{4-(1,2,3,4-tetrahydrobenz[f]isoquinolin-2-yl)butyl}-fluoren-9-one-3-carboxamide hydrochloride [Compound 6]”: the Ki was found to be 0.165 µM at D2 receptor and 0.017 µM on D3 receptor (setting [1]).
Regarding `O=C(NCCCCN1CCc2c(ccc3ccccc23)C1)c1cnc2ccccc2c1` [Compound 1, N-{4-(1,2,3,4-tetrahydrobenz[f]isoquinolin-2-yl)butyl}-quinoline-3-carboxamide hydrochloride], the Ki on D2 receptor stood at 0.127 µM; on D3 receptor (setting [1]) it was 0.008 µM.
Consider `O=C(NCCCCN1CCc2c(ccc3ccccc23)C1)c1ccc2sc3ccccc3c2c1` [Compound 7, N-{4-(1,2,3,4-tetrahydrobenz[f]isoquinolin-2-yl)butyl}-dibenzothiophene-2-carboxamide hydrochloride], for which the Ki on D2 receptor came out at 0.377 µM; on D3 receptor (setting [1]) it was 0.005 µM.
Consider `O=C(NCCCCN1CCN2c3ccccc3CCC2C1)c1ccc2c(c1)Cc1ccccc1-2` (stereo not drawn) [Compound 14, N-{4-(2,3,4,4a,5,6-hexahydro-1H-pyrazino[1,2-a]quinolin-2-yl)butyl}-fluorene-2-carboxamide hydrochloride], for which the figures for the inhibition constant (Ki) at D2 receptor and at D3 receptor (setting [1]) were 0.198 µM and 0.009 µM, respectively.
